The test system of series [1] is S. mansoni adult worms. In words: In vitro antischistosomal assay on adult worms. It is filed as cell-based, Schistosoma mansoni. Conditions: for Activity against 49-day-old S. mansoni worms at 50 µM: adult worms, initial in vitro trial, 72 h; for EC50: Schistosoma mansoni, based on mortality, after 72 h, 95% confidence interval in square brackets. The method, then: The antischistosomal assay was performed according to the methodology previously described[16],[19],[20]. Briefly, […], were incubated in flat bottom 24-well plates (Corning, New York, NY, USA) in RPMI 1640 culture medium (Vitrocell, Campinas, SP, Brazil) supplemented with 5% inactivated fetal calf serum, antibiotics (100 U/mL penicillin and 100 μg/mL streptomycin), and buffered with HEPES 25 mM (Sigma-Aldrich, St. Louis, MO, USA). Compounds were dissolved in dimethyl sulfoxide (DMSO at a final concentration of 0.5% v/v) and tested at 50 μM using PZQ 2 μM and DMSO 0.5% as positive and negative controls, respectively. Parasites were kept for 72 h (37 °C, 5% CO2, Panasonic, Osaka, Japan) and their viability was assessed using a Motic AE2000 inverted microscope (Vancouver, Canada)[21]. Each experiment was performed in triplicate and repeated at least three times. The negative control (using the highest concentration of DMSO, i.e., 0.5) and positive control (praziquantel 2 µM) were included.
Each concentration was tested in five replicates, and experiments were repeated once.

In series [2] the test system is cathepsin B1 from Schistosoma mansoni (SmCB1). Set-up: method as in ref 2 (Fonseca et al.). Conditions: ref 2 (Fonseca et al.), cited from earlier work.
Series [3] has as its system Caenorhabditis elegans. It is filed as in vivo. Conditions: L4 stage, 24 h. As for the experimental part:
Caenorhabditis elegans wild-type (N2 strain), kindly provided by Dr. Carlos E. Winter (University of São Paulo), was routinely cultured at 22 °C on nematode growth medium (NGM) plates seeded with Escherichia coli (strain OP50) as a food source according to standard protocols.
For the drug assessment, the age-synchronized L1 stage was cultivated on standard NGM plates. When at the L4 stage, approximately 25 nematodes were transferred to each well of a 96-wells NGM plates containing the drug of interest at the desired concentration (10, 25, 50, 100, and 200 μM) along with a positive control (levamisole 10 μM) and a negative control (DMSO 0.5%). Nematodes were kept at 22 °C for 24 h, and their viability was verified microscopically using a Motic AE2000 inverted microscope (Vancouver, Canada) equipped with an ultra-high definition (UHD) camera and with a 48-inch 4K-UHD monitor system (LG Electronics, São Paulo, Brazil)[33].

Series [4] in a line: In vitro cytotoxicity assay (MTT) on Vero cells. Conditions: African green monkey, Vero cells (ATCC CCL-81); Vero cells; MTT assay; 72 h; read-out: Mammalian cells CC50. It is filed as cell-based, African green monkey. The method, then: (§1) The life cycle of S. mansoni (Belo Horizonte strain) is maintained through routine passage through Biomphalaria glabrata snails and Swiss mice at the Research Center on Neglected Diseases (Guarulhos University, SP, Brazil). Both rodents and snails were kept under environmentally controlled conditions (25 °C; humidity of 50%), with free access to food and water. Vero cells were obtained from the American Type Culture Collection (ATCC CCL-81; Manassas, VA, USA). Cells were routinely cultured in Dulbecco’s Modified Eagle Medium (DMEM) supplemented with 5% heat-inactivated fetal bovine serum and antibiotics (100 U/mL penicillin and 100 μg/mL streptomycin) at 37 °C in a humidified atmosphere containing 5% CO2 [17].
(§2) The cytotoxicity of the compounds on the Vero cells was determined by thiazolyl blue tetrazolium bromide (MTT) assay (Sigma-Aldrich) as previously described[21],[24]. […] After 72 h, MTT solution was added to each well and the absorbance at 595 nm was read on a spectrophotometer (Epoch, BioTek Instruments, Winooski, VT, USA).

Series [5] relates to Vero cells. In words: In vitro cytotoxicity assay (MTT) on Vero cells. Type of series: cell-based, African green monkey. Conditions: CC50 on Vero cells divided by EC50 on schistosomes (based on the highest concentration). The method, then: as §1, §2
Setting [6] is: female adult worms, read-out: S. mansoni EC50 Female.
[7] abbreviates: male adult worms, read-out: S. mansoni EC50 Male.

The structures appear in SMILES notation. Read-outs that look alike come from different tables or passages of the source. A value given as a limit tells only on which side of the number the result lay.

As to `Oc1ccc(/C=N/Nc2ccnc3cc(Cl)ccc23)c(O)c1` [GPQF-8Q14, 4-{(E)-[2-(7-chloroquinolin-4-yl)hydrazinylidene]methyl}benzene-1,3-diol], in series [1], the “Activity against 49-day-old S. mansoni worms at 50 µM” value (from here on “Activity”) is given as “Inactive”.

`CC/C(C)=N/Nc1ccnc2cc(Cl)ccc12` [GPQF-8Q22, 4-[(2E)-2-(butan-2-ylidene)hydrazinyl]-7-chloroquinoline]: the melting point lay in the range of 71 to 74 °C. For the same compound, the “Activity” value in series [1] was “Inactive”.

In turn, `C/C(=N\Nc1ccnc2cc(Cl)ccc12)c1ccccc1` [GPQF-8Q16, 7-Chloro-4-[(2E)-2-(1-phenylethylidene)hydrazinyl]quinoline] yielded a melting point of 302 to 306 °C. In series [1], the “Activity” value was “Inactive”.

Turning to `Cc1ccc(/C=N/NC(N)=S)cc1` [II], the IC50 in series [2] is 2.5 µM.

As to `Fc1ccc(/C=N/Nc2ccnc3cc(Cl)ccc23)cc1` [GPQF-8Q12, 7-Chloro-4-[(2E)-2-(4-fluorobenzylidene)hydrazinyl]quinoline], the melting point lay within 236 to 241 °C.

On to `COc1cc(/C=N/Nc2ccnc3cc(Cl)ccc23)ccc1O` [GPQF-8Q4, 4-{(E)-[2-(7-chloroquinolin-4-yl)hydrazinylidene]methyl}-2-methoxyphenol], for which, in series [1], the “Activity” value was “Inactive”.

With `CCc1ccc(/C(C)=N/Nc2ccnc3cc(Cl)ccc23)cc1` [GPQF-8Q19, 7-Chloro-4-{(2E)-2-[1-(4-ethylphenyl)ethylidene]hydrazinyl}quinoline], the melting point was in the range of 300 to 304 °C. In addition, the “Activity” value in series [1] is recorded as “Inactive”.

Consider `NC(=S)N/N=C/c1ccc[nH]1` [IV], for which the IC50 in series [2] (unit inferred) is 6.8 µM.

`C/C(CCc1ccccc1)=N\Nc1ccnc2cc(Cl)ccc12` [GPQF-8Q21, 7-Chloro-4-[(2E)-2-(4-phenylbutan-2-ylidene)hydrazinyl]quinoline] gave a melting point of 161 to 166 °C. For the same compound, in series [1], the “Activity” value was “Inactive”.

`O=[N+]([O-])c1ccc(/C=N/Nc2ccnc3cc(Cl)ccc23)o1` [GPQF-8Q6, 7-Chloro-4-{(2E)-2-[(5-nitrofuran-2-yl)methylidene]hydrazinyl}quinoline]: the “Activity” value in series [1] was “Inactive”.

The compound `C/C(=N\Nc1ccnc2cc(Cl)ccc12)C(C)(C)C` [GPQF-8Q25, 7-Chloro-4-[(2E)-2-(3,3-dimethylbutan-2-ylidene)hydrazinyl]quinoline] returned a melting point of 228 to 232 °C. The “Activity” value in series [1] is recorded as “Inactive”.

For `Clc1ccc2c(N/N=C/c3ccccc3)ccnc2c1` [GPQF-8Q1, 4-[(2E)-2-benzylidenehydrazinyl]-7-chloroquinoline], the melting point is 220 to 224 °C. Besides, in series [1], the “Activity” value is reported as “Inactive”.

As to `C/C(=N\Nc1ccnc2cc(Cl)ccc12)c1ccc(C)cc1` [GPQF-8Q18, 7-Chloro-4-{(2E)-2-[1-(4-methylphenyl)ethylidene]hydrazinyl}quinoline], the melting point is 310 °C (dec.). Further, the “Activity” value in series [1] is “Inactive”.

On to `c1ccc([C@H]2CN3CCSC3=N2)cc1` [LVM, levamisole, reference compound], for which the “Survival percentage of C. elegans” value in series [3] (10 μM) stood at 0%.

With `O=[N+]([O-])c1ccc(/C=N/Nc2ccnc3cc(Cl)ccc23)cc1` [GPQF-8Q3, 7-Chloro-4-[(2E)-2-(4-nitrobenzylidene)hydrazinyl]quinoline], the “Activity” value in series [1] is “Inactive”.

On to `CCC/C(C)=N/Nc1ccnc2cc(Cl)ccc12` [GPQF-8Q23, 7-Chloro-4-[(2E)-2-(pentan-2-ylidene)hydrazinyl]quinoline], for which the melting point is 250 °C (dec.). The “Activity” value in series [1] is reported as “Inactive”.

`C/C(=N\Nc1ccnc2cc(Cl)ccc12)c1ccc(Cl)cc1` [GPQF-8Q26, 7-Chloro-4-{(2E)-2-[1-(4-chlorophenyl)ethylidene]hydrazinyl}quinoline] displayed a melting point of 290 to 292 °C. In addition, the “Activity” value in series [1] is reported as “Inactive”.

As for `C/C(=N\Nc1ccnc2cc(Cl)ccc12)c1ccc(O)cc1` [GPQF-8Q17, 4-{(1E)-1-[2-(7-chloroquinolin-4-yl)hydrazinylidene]ethyl}phenol], the “Activity” value in series [1] is “Inactive”.

For the compound `Clc1ccc2c(N/N=C/c3ccc(Cl)c(Cl)c3)ccnc2c1` [GPQF-8Q13, 7-Chloro-4-[(2E)-2-(3,4-dichlorobenzylidene)hydrazinyl]quinoline], the melting point is 320 °C (dec.). In series [1], the “Activity” value is “Inactive”.

Consider `Cc1ccc(/C=N/Nc2ccnc3cc(Cl)ccc23)cc1` [GPQF-8Q10, 7-Chloro-4-[(2E)-2-(4-methylbenzylidene)hydrazinyl]quinoline], for which, in series [1] (25 µM), the “Time to worm mortality” value is reported as ≤ 24 h. For the same compound, the “Activity” value in series [1] is on record as “Active”. For the same compound, the results for the EC50 in series [1] (setting [6]) and in series [1] (setting [7]) were 15.6 µM and 13.3 µM, respectively. For the same compound, in series [4], the CC50 at 72 h is > 200 µM. The “SI (selectivity index)” value in series [5] is listed as > 12.8. Moreover, the “Survival percentage of C. elegans” value in series [3] (10 μM), in series [3] (25 μM), in series [3] (50 μM), in series [3] (100 μM) and in series [3] (200 μM) was 100% throughout.

`O=C(C1CCCCC1)N1CC(=O)N2CCc3ccccc3C2C1` (centres unmarked) [PZQ, praziquantel, reference compound]: the EC50 in series [1] (setting [6]) came out at 1 µM; in series [1] (setting [7]), 0.7 µM. In addition, the CC50 at 72 h in series [4] is > 200 µM. Also, the “SI (selectivity index)” value in series [5] is recorded as > 200.

Regarding `C/C(=N\Nc1ccnc2cc(Cl)ccc12)c1ccc(Cl)c(Cl)c1` [GPQF-8Q20, 7-Chloro-4-{(2E)-2-[1-(3,4-dichlorophenyl)ethylidene]hydrazinyl}quinoline], the melting point lay in the range of 294 to 298 °C. In series [1], the “Activity” value is reported as “Inactive”.

`NC(=S)N/N=C/c1ccncc1` [V]: the IC50 in series [2] (unit inferred) was 42.4 µM.

Source of the values: PMC10643403, “Targeting the Schistosoma mansoni nutritional mechanisms to design new antischistosomal compounds” (Scientific Reports, 2023).
